Patent US10301664B2, “Repurposing non-antimicrobial drugs and clinical molecules to treat bacterial infections” (Purdue Research Foundation, priority 2015, dated 2019)
≈ marks a conversion by molar mass, not a printed value. Read-outs that look alike come from different tables or passages of the source.

Experiments:
[1] = test system: Vancomycin-intermediate S. aureus (VISA); assay: MIC and MBC against vancomycin-intermediate S. aureus isolates (CLSI); type: cell-based; settings: Staphylococcus aureus; for MBC: read-out: MBC; for MIC: read-out: MIC
[2] = test system: vancomycin resistant E. faecium ATCC 700221 (VRE); assay: Library hits: MIC/MBC against VRE; type: cell-based; settings: VRE
[3] = test system: MRSA USA200; type: in vivo, BALB/c mice; settings: EB 30 mg/kg or FdUrd 25 mg/kg once daily for three days, monitored six days
Procedure: Animal procedures were approved by the Purdue University Animal Care and Use Committee (PACUC) (protocol no. 1311000988). Eight-week-old female BALB/c mice (Harlan Laboratories, Indianapolis, Ind.) were used for this study. Mice were rendered neutropenic by treatment with cyclophosphamide intraperitoneally (IP) 150 and 100 mg/kg at four days and one day before infection, respectively. Neutropenic mice were inoculated IP with 8×10^8 MRSA USA200. At one hour after infection, the mice were divided into five groups (n=10 per group), and two groups were treated orally with either EB 30 mg/kg or FdUrd 25 mg/kg. Two groups were treated IP with either EB 30 mg/kg or FdUrd 25 mg/kg. One group was used as a control with no treatment. Treatment was continued once daily for two more days (animals received three doses total). Mortality was monitored four times daily for six days, and the cumulative percent survival was determined. The data were subjected to statistical analysis using Kaplan-Meier survival curves. A log rank test was performed for 95% confidence intervals by GraphPad Prism 6.0 (GraphPad Software, La Jolla, Calif.).

[4] = test system: A. baumannii ATCC BAA-1605; assay: Library hits: MIC against A. baumannii; type: cell-based
[5] = test system: E. fecalis ATCC 51229 (VRE); assay: MIC and MBC against E. fecalis VRE (CLSI); type: cell-based; settings: Enterococcus
Procedure: The NIH Clinical Collections 1 and 2 (http://www.nihclinicalcollection.com) containing 727 FDA approved drugs and small molecules previously used in human clinical trials with known safety profiles were screened against ESKAPE pathogens. The library was initially screened at a single concentration of 16 μM to identify “hit” non-antibacterial drugs. Once the antimicrobial activity of the drugs was confirmed, we determined their MICs and minimum bactericidal concentrations (MBCs) according to the Clinical and Laboratory Standards Institute (CLSI).

[6] = test system: E. faecium ATCC 700221 (VRE); assay: MIC and MBC against E. faecium VRE (CLSI), Table 1; type: cell-based; settings: Enterococcus faecium
[7] = test system: MRSA USA300; assay: Library hits: MIC/MBC against MRSA; type: cell-based, Staphylococcus aureus; settings: Staphylococcus aureus
[8] = test system: Methicillin resistant S. aureus (MRSA); assay: MIC and MBC against methicillin resistant S. aureus clinical isolates (CLSI); type: cell-based; settings: Staphylococcus aureus; for MBC: read-out: MBC; for MIC: read-out: MIC
[9] = test system: S. epidermidis NRS 101; assay: MIC and MBC against S. epidermidis (CLSI); type: cell-based; settings: Staphylococcus epidermidis, NRS101
[10] = test system: Vancomycin-resistant S. aureus (VRSA); assay: MIC and MBC against vancomycin-resistant S. aureus clinical isolates (CLSI); type: cell-based; settings: Staphylococcus aureus, VRSA; for MBC: read-out: MBC; for MIC: read-out: MIC
[11] = test system: clinical isolates of S. aureus; assay: MIC90 over clinical isolates of S. aureus; type: cell-based; settings: Staphylococcus aureus, Table 1, read-out: MIC90 (MIC at which 90% of clinical isolates of S. aureus were inhibited)
[12] = test system: Methicillin-sensitive S. aureus (MSSA); assay: MIC and MBC against methicillin-sensitive S. aureus isolates (CLSI); type: cell-based; settings: Staphylococcus aureus; for MBC: read-out: MBC; for MIC: read-out: MIC
[13] = test system: P. aeruginosa ATCC 15442; assay: Library hits: MIC against P. aeruginosa; type: cell-based
[14] = MRSA / NRS 119, NRS119 (resistant to linezolid)

O=c1[nH]c(=O)n([C@H]2C[C@H](O)[C@@H](CO)O2)cc1F [FdUrd, 5-fluoro-2′-deoxyuridine]
MBC ([1]; NRS 1 / VISA, NRS 1): 1.95 ng/mL (≈ 7.92 nM) | MIC ([1]; NRS 1 / VISA, NRS 1): 1.95 ng/mL (≈ 7.92 nM) | MBC ([1]; NRS 19 / VISA): 1.95 ng/mL (≈ 7.92 nM) | MIC ([1]; NRS 19 / VISA): 0.49 ng/mL (≈ 1.99 nM) | MBC ([1]; NRS 37 / VISA): 7.8 ng/mL (≈ 31.7 nM) | MIC ([1]; NRS 37 / VISA): 1.95 ng/mL (≈ 7.92 nM) | MBC [2]: 0.5 µM (≈ 0.123 µg/mL) | MIC ([2]; read-out: MIC): < 0.5 µM | mice survival compared to that of control ([3]; IP): 100% | mice survival compared to that of control ([3]; oral): 60% | MIC/MBC [4]: >16 µM | MBC [5]: 125 ng/mL (≈ 508 nM) | MIC [5]: 125 ng/mL (≈ 508 nM) | MBC [6]: 125 ng/mL (≈ 508 nM) | MIC [6]: 62.5 ng/mL (≈ 254 nM) | MBC ([7]; read-out: MBC): 0.5 µM (≈ 0.123 µg/mL) | MIC ([7]; read-out: MIC): < 0.5 µM | MBC ([8]; MRSA / NRS 70): 3.15 ng/mL (≈ 12.8 nM) | MIC ([8]; MRSA / NRS 70): 3.9 ng/mL (≈ 15.8 nM) | MBC ([8]; MRSA / NRS 71): 1.95 ng/mL (≈ 7.92 nM) | MIC ([8]; MRSA / NRS 71): 1.95 ng/mL (≈ 7.92 nM) | MBC ([8]; MRSA / NRS 100): 0.975 ng/mL (≈ 3.96 nM) | MIC ([8]; MRSA / NRS 100): 0.975 ng/mL (≈ 3.96 nM) | MBC ([8]; MRSA / NRS 108): 15.6 ng/mL (≈ 63.4 nM) | MIC ([8]; MRSA / NRS 108): 7.8 ng/mL (≈ 31.7 nM) | MBC [8, 14]: 15.6 ng/mL (≈ 63.4 nM) | MIC [8, 14]: 3.9 ng/mL (≈ 15.8 nM) | MBC ([8]; MRSA / NRS 123): 3.9 ng/mL (≈ 15.8 nM) | MIC ([8]; MRSA / NRS 123): 0.975 ng/mL (≈ 3.96 nM) | MBC ([8]; MRSA / NRS 194): 62.5 ng/mL (≈ 254 nM) | MIC ([8]; MRSA / NRS 194): 3.9 ng/mL (≈ 15.8 nM) | MBC ([8]; MRSA / NRS 382): 7.8 ng/mL (≈ 31.7 nM) | MIC ([8]; MRSA / NRS 382): 0.975 ng/mL (≈ 3.96 nM) | MBC ([8]; MRSA / NRS 383): 7.8 ng/mL (≈ 31.7 nM) | MIC ([8]; MRSA / NRS 383): 7.8 ng/mL (≈ 31.7 nM) | MBC ([8]; MRSA / NRS 384, NRS 384): 1.95 ng/mL (≈ 7.92 nM) | MIC ([8]; MRSA / NRS 384, NRS 384): 1.95 ng/mL (≈ 7.92 nM) | MBC ([8]; MRSA / NRS 385, NRS 385): 31.5 ng/mL (≈ 128 nM) | MIC ([8]; MRSA / NRS 385, NRS 385): 31.5 ng/mL (≈ 128 nM) | MBC ([8]; MRSA / NRS 386, NRS 386): 7.8 ng/mL (≈ 31.7 nM) | MIC ([8]; MRSA / NRS 386, NRS 386): 1.95 ng/mL (≈ 7.92 nM) | MBC ([8]; MRSA / NRS 387, NRS 387): 15.6 ng/mL (≈ 63.4 nM) | MIC ([8]; MRSA / NRS 387, NRS 387): 3.9 ng/mL (≈ 15.8 nM) | MBC ([8]; MRSA / NRS 483, NRS 483): 7.8 ng/mL (≈ 31.7 nM) | MIC ([8]; MRSA / NRS 483, NRS 483): 1.95 ng/mL (≈ 7.92 nM) | MBC ([8]; MRSA / NRS 484, NRS 484): 3.9 ng/mL (≈ 15.8 nM) | MIC ([8]; MRSA / NRS 484, NRS 484): 0.975 ng/mL (≈ 3.96 nM) | MBC [9]: 7.8 ng/mL (≈ 31.7 nM) | MIC [9]: 7.8 ng/mL (≈ 31.7 nM) | MBC ([10]; VRSA1): 7.8 ng/mL (≈ 31.7 nM) | MIC ([10]; VRSA1): 7.8 ng/mL (≈ 31.7 nM) | MBC ([10]; VRSA2): 15.6 ng/mL (≈ 63.4 nM) | MIC ([10]; VRSA2): 3.9 ng/mL (≈ 15.8 nM) | MBC ([10]; VRSA3a): 0.975 ng/mL (≈ 3.96 nM) | MIC ([10]; VRSA3a): 0.975 ng/mL (≈ 3.96 nM) | MBC ([10]; VRSA3b): 0.49 ng/mL (≈ 1.99 nM) | MIC ([10]; VRSA3b): 0.49 ng/mL (≈ 1.99 nM) | MBC ([10]; VRSA4): 3.9 ng/mL (≈ 15.8 nM) | MIC ([10]; VRSA4): 1.95 ng/mL (≈ 7.92 nM) | MBC ([10]; VRSA5): 1.95 ng/mL (≈ 7.92 nM) | MIC ([10]; VRSA5): 1.95 ng/mL (≈ 7.92 nM) | MBC ([10]; VRSA6): 1.95 ng/mL (≈ 7.92 nM) | MIC ([10]; VRSA6): 0.49 ng/mL (≈ 1.99 nM) | MBC ([10]; VRSA7): 3.9 ng/mL (≈ 15.8 nM) | MIC ([10]; VRSA7): 1.95 ng/mL (≈ 7.92 nM) | MBC ([10]; VRSA8): 0.975 ng/mL (≈ 3.96 nM) | MIC ([10]; VRSA8): 0.49 ng/mL (≈ 1.99 nM) | MBC ([10]; VRSA9): 1.95 ng/mL (≈ 7.92 nM) | MIC ([10]; VRSA9): 0.975 ng/mL (≈ 3.96 nM) | MBC ([10]; VRSA10): 0.975 ng/mL (≈ 3.96 nM) | MIC ([10]; VRSA10): 0.975 ng/mL (≈ 3.96 nM) | MBC ([10]; VRSA11a): 15.6 ng/mL (≈ 63.4 nM) | MIC ([10]; VRSA11a): 0.975 ng/mL (≈ 3.96 nM) | MBC ([10]; VRSA11b): 3.9 ng/mL (≈ 15.8 nM) | MIC ([10]; VRSA11b): 0.975 ng/mL (≈ 3.96 nM) | MBC ([10]; VRSA12): 3.9 ng/mL (≈ 15.8 nM) | MIC ([10]; VRSA12): 1.95 ng/mL (≈ 7.92 nM) | MBC ([10]; VRSA13): 15.6 ng/mL (≈ 63.4 nM) | MIC ([10]; VRSA13): 1.95 ng/mL (≈ 7.92 nM) | MIC90 [11]: 3.9 ng/mL (≈ 15.8 nM) | MBC ([12]; MSSA / NRS 72): 1.95 ng/mL (≈ 7.92 nM) | MIC ([12]; MSSA / NRS 72): 0.975 ng/mL (≈ 3.96 nM) | MBC ([12]; MSSA / NRS 77): 0.49 ng/mL (≈ 1.99 nM) | MIC ([12]; MSSA / NRS 77): 0.49 ng/mL (≈ 1.99 nM) | MBC ([12]; MSSA / NRS 846): 3.9 ng/mL (≈ 15.8 nM) | MIC ([12]; MSSA / NRS 846): 3.9 ng/mL (≈ 15.8 nM) | MBC ([12]; MSSA / NRS 860): 1.95 ng/mL (≈ 7.92 nM) | MIC ([12]; MSSA / NRS 860): 1.95 ng/mL (≈ 7.92 nM) | MIC/MBC [13]: >16 µM
